According to the NIST ThermoML archive (doi:10.1021/je700339f):

Assay: xn = mol fraction of the nth substance listed
Details: 298 K, Liquid

ClCCCCCCCl [1,6-dichlorohexane] + CC(=O)N(C)C
mass density [kg/m3]
Details | x2 = 0.1002 | x2 = 0.1985 | x2 = 0.3002 | x2 = 0.404 | x2 = 0.4943 | x2 = 0.6007 | x2 = 0.7006 | x2 = 0.8012 | x2 = 0.8994
100 kPa | 1054.5 | 1045.2 | 1034.5 | 1023.1 | 1012.3 | 998.8 | 985.3 | 970.4 | 954.6
500 kPa | 1054.7 | 1045.5 | 1034.8 | 1023.4 | 1012.5 | 999 | 985.6 | 970.7 | 954.8
1000 kPa | 1055.1 | 1045.9 | 1035.2 | 1023.7 | 1012.9 | 999.3 | 985.9 | 971 | 955.1
1500 kPa | 1055.5 | 1046.2 | 1035.6 | 1024.1 | 1013.3 | 999.6 | 986.2 | 971.3 | 955.4
2000 kPa | 1055.8 | 1046.6 | 1035.9 | 1024.4 | 1013.6 | 1000 | 986.5 | 971.6 | 955.7
2500 kPa | 1056.2 | 1046.9 | 1036.2 | 1024.8 | 1013.9 | 1000.3 | 987 | 972 | 956.1
2900 kPa | – | – | – | – | 1014.3 | – | – | – | –
3000 kPa | 1056.5 | 1047.3 | 1036.6 | 1025.1 | – | 1000.6 | 987.2 | 972.3 | 956.4
3500 kPa | 1056.9 | 1047.6 | 1036.8 | 1025.4 | 1014.6 | 1001 | 987.6 | 972.6 | 956.6
4000 kPa | 1057.2 | 1047.9 | 1037.2 | 1025.7 | 1014.9 | 1001.4 | 987.9 | 972.9 | 957
4500 kPa | 1057.6 | 1048.3 | 1037.5 | 1026.1 | 1015.3 | 1001.6 | 988.2 | 973.2 | 957.2
5000 kPa | 1057.9 | 1048.6 | 1037.9 | 1026.5 | 1015.6 | 1002 | 988.5 | 973.5 | 957.6
5500 kPa | 1058.2 | 1049 | 1038.2 | 1026.8 | 1015.9 | 1002.3 | 988.9 | 973.8 | 957.9
6000 kPa | 1058.6 | 1049.3 | 1038.5 | 1027.1 | 1016.3 | 1002.6 | 989.1 | 974.2 | 958.2
6500 kPa | 1058.9 | 1049.6 | 1038.9 | 1027.4 | 1016.6 | 1002.9 | 989.5 | 974.4 | 958.5
7000 kPa | 1059.3 | 1049.9 | 1039.2 | 1027.7 | 1016.9 | 1003.3 | 989.7 | 974.7 | 958.8
7500 kPa | 1059.6 | 1050.2 | 1039.5 | 1028.1 | 1017.2 | 1003.6 | 990.1 | 975 | 959
8000 kPa | 1060 | 1050.6 | 1039.9 | 1028.4 | 1017.4 | 1003.9 | 990.4 | 975.4 | 959.4
8500 kPa | 1060.3 | 1050.9 | 1040.2 | 1028.7 | 1017.8 | 1004.2 | 990.6 | 975.7 | 959.7
9000 kPa | 1060.6 | 1051.2 | 1040.6 | 1029.1 | 1018.1 | 1004.5 | 991 | 976 | 960
9500 kPa | 1061 | 1051.6 | 1040.9 | 1029.4 | 1018.5 | 1004.8 | 991.2 | 976.3 | 960.3
10000 kPa | 1061.4 | 1052 | 1041.3 | 1029.8 | 1018.9 | 1005.2 | 991.6 | 976.7 | 960.6
10500 kPa | 1061.7 | 1052.3 | 1041.6 | 1030.2 | 1019.2 | 1005.5 | 992 | 977 | 960.9
11000 kPa | 1062 | 1052.6 | 1041.9 | 1030.4 | 1019.5 | 1005.8 | 992.3 | – | 961.2
11400 kPa | – | – | – | – | – | – | – | – | 961.5
11500 kPa | 1062.3 | 1052.9 | 1042.2 | 1030.7 | 1019.9 | 1006.1 | 992.6 | 977.6 | –
12000 kPa | 1062.7 | 1053.3 | 1042.5 | 1031 | 1020.2 | 1006.5 | 992.9 | 977.9 | 961.8
12500 kPa | 1063 | 1053.6 | 1042.9 | 1031.4 | 1020.5 | 1006.7 | 993.2 | 978.2 | 962.1
13000 kPa | 1063.4 | 1054 | 1043.2 | 1031.7 | 1020.8 | 1007 | 993.5 | 978.5 | 962.4
13500 kPa | 1063.7 | 1054.3 | 1043.5 | 1032 | 1021.1 | 1007.4 | 993.8 | 978.7 | 962.6
14000 kPa | 1063.9 | 1054.7 | 1043.8 | 1032.4 | 1021.4 | 1007.6 | 994.1 | 979 | 963
14500 kPa | 1064.3 | 1055 | 1044.2 | 1032.6 | 1021.7 | 1008 | 994.4 | 979.4 | 963.2
15000 kPa | 1064.6 | 1055.3 | 1044.5 | 1032.9 | 1022 | 1008.2 | 994.7 | 979.6 | 963.4
15500 kPa | 1064.9 | 1055.6 | 1044.8 | 1033.3 | 1022.3 | 1008.6 | 995 | 980 | 963.8
16000 kPa | 1065.3 | 1055.9 | 1045.1 | 1033.6 | 1022.6 | 1009 | 995.3 | 980.2 | 964
16400 kPa | – | – | – | – | – | – | – | 980.5 | –
16500 kPa | 1065.6 | 1056.2 | 1045.3 | 1033.9 | 1022.9 | 1009.3 | 995.6 | – | 964.3
17000 kPa | 1065.9 | 1056.5 | 1045.7 | 1034.2 | 1023.2 | 1009.6 | 995.9 | 980.8 | 964.6
17400 kPa | – | – | – | – | – | – | 996.2 | – | –
17500 kPa | 1066.2 | 1056.8 | 1046 | 1034.6 | 1023.5 | 1009.9 | – | 981.1 | 964.9
18000 kPa | 1066.5 | 1057.1 | 1046.3 | 1034.9 | 1023.8 | 1010.2 | 996.5 | 981.4 | 965.2
18500 kPa | 1066.8 | 1057.5 | 1046.7 | 1035.2 | 1024 | 1010.5 | 996.9 | 981.6 | 965.4
19000 kPa | 1067.2 | 1057.8 | 1047 | 1035.5 | 1024.3 | 1010.9 | 997.1 | 982 | 965.7
19500 kPa | 1067.5 | 1058.1 | 1047.3 | 1035.9 | 1024.7 | 1011.2 | 997.4 | 982.3 | 966
19900 kPa | – | – | – | – | – | – | 997.6 | – | –
20000 kPa | 1067.9 | 1058.4 | 1047.7 | 1036.2 | 1025 | 1011.5 | – | 982.6 | 966.4
